Test results reported in US20240150360A1 (THE REGENTS OF THE UNIVERSITY OF MICHIGAN, priority 2021, published 2024).
Where two headings read alike, the source gives them in different places.

Experiments:
CBP = target: T1, CBP (Homo sapiens, UniProt Q92793); experiment: CBP degradation in 22Rv1 cells (5 h); type: cell-based; details: 22Rv1 cells, 5 h; for Dmax: 22Rv1, 5 h, read-out: CBP Degradation (22Rv1, 5 h) DCmax
T1 construct: endogenous in cells; host or cells: 22Rv1 (ATCC CRL-2505) human prostate cancer cells
T1 sequence (Q92793 whole entry): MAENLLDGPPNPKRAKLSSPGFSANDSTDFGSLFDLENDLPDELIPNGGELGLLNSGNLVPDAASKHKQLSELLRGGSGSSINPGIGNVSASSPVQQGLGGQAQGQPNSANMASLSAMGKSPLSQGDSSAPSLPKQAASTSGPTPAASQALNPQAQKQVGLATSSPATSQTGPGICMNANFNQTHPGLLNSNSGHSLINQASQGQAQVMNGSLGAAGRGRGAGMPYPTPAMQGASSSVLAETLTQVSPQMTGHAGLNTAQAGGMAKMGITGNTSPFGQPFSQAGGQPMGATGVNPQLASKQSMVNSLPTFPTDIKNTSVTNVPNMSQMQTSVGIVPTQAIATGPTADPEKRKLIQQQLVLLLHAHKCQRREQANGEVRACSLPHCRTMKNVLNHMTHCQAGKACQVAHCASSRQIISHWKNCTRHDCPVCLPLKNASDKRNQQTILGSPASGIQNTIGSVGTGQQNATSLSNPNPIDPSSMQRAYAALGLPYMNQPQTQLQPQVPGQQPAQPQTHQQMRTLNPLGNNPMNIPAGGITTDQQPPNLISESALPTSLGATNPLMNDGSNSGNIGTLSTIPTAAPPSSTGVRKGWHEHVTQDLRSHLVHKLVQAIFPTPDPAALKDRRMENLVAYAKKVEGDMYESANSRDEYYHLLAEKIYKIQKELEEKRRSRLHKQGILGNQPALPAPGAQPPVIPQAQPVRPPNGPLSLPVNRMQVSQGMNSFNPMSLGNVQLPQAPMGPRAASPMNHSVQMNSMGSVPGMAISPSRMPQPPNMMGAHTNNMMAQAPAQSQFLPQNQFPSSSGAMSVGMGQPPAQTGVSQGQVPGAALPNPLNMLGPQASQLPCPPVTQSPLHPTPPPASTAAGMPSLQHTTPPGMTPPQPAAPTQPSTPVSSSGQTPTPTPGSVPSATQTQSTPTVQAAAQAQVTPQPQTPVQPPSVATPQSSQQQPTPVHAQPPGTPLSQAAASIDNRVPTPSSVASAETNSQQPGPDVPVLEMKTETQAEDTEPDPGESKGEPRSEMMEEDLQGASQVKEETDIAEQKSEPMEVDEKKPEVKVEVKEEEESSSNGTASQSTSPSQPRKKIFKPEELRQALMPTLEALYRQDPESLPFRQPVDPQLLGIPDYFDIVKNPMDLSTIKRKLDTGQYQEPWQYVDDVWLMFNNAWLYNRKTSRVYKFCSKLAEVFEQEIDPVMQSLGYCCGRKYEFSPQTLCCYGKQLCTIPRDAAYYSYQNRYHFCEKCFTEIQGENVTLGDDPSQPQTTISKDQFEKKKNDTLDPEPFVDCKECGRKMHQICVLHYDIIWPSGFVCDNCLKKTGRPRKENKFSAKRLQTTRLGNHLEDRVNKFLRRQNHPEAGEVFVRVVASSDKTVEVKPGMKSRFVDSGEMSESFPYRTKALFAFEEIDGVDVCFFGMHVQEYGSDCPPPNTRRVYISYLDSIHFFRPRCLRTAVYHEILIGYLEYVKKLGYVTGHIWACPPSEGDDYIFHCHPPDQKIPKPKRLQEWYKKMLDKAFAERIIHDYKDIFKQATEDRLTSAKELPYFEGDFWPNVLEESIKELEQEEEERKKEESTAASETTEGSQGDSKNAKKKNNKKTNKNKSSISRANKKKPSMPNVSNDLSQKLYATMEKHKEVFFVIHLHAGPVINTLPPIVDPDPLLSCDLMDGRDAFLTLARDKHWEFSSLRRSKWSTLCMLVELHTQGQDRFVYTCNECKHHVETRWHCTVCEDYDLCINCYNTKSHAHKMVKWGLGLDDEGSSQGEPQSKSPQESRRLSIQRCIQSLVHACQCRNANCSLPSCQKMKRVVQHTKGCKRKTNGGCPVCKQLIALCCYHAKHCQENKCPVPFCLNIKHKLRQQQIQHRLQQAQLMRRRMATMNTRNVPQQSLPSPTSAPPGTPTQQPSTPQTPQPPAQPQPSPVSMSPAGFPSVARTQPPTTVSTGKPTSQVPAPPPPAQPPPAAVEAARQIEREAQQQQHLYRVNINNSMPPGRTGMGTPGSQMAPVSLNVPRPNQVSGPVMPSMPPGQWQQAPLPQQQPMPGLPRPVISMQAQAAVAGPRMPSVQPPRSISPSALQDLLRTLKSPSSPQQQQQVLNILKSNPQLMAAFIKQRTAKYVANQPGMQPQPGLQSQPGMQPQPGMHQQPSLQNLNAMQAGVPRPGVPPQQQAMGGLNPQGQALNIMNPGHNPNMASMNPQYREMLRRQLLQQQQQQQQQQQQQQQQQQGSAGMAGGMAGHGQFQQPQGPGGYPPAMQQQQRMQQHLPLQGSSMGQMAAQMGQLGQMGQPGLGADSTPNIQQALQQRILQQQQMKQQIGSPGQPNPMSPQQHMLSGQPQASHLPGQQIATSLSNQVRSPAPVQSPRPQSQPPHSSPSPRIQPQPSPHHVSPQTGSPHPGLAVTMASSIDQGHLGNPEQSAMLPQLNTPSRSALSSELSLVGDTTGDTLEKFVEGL
From the text: Biological Assays. […] Cells with 3-8 passages after purchase were used in experiments.

22Rv1 cells = experiment: Cell growth inhibition assay (CellTiter-Glo) in 22Rv1; type: cell-based, human; details: 22Rv1 cells, 96 h incubation, read-out: Cell Growth Inhibition (IC50) 22Rv1
Procedure: Biological Assays. CBP/p300 degradation activity and cell growth inhibition were evaluated in the human prostate cancer cell line 22Rv1 (ATCC© CRL-2505™) purchased from the American Type Culture Collection (ATCC), Manassas, VA, and maintained and cultured in Dulbecco's Modified Eagle's medium (DMEM) containing 10% fetal bovine serum, 1 unit/ml of penicillin and 1 μg/ml of streptomycin. Cells with 3-8 passages after purchase were used in experiments.
Cell Growth Inhibition Assay Protocol. 22RV1 cells were seeded at a concentration of 4000 cells/well in 100 μl culture medium and 2 μl of test compound (final concentration start from 10 μM and 3 times dilution) into 96 well microplates (Corning 3903). The cell cultures were incubated for 96 h at +37° C. and 5% CO2. The plate and its contents were equilibrated to room temperature for approximately 30 minutes. 100 μl of CellTiter-Glo® 2.0 Reagent equal to the volume of cell culture medium present was added in each well. The contents were mixed for 2 minutes on an orbital shaker. The plate was allowed to incubate at room temperature for 10 minutes. The luminescence was recorded. The data was analyzed by Prism GraphPad 8.

HL60 = experiment: Cell growth inhibition in HL60; type: cell-based; details: read-out: Cell Growth Inhibition (IC50) HL60
[1] = Homo sapiens, HL-60, HL60 cells

Row | Dmax (CBP) [%] | DC50 (CBP) [nM] | IC50 (22Rv1 cells; Homo sapiens, 22Rv1, 96 h) [nM] | IC50 (HL60; [1]) [nM] | IC50 (22Rv1 cells) [nM] | CBP Degradation (22Rv1, 5 h) DCmax (CBP) | IC50 (HL60; HL60 cells) [nM] | SMILES
1 | > 50 | < 100 | < 10000 | < 1000 |  |  |  | CC(=O)N1CCc2c(c(N3CCCc4cc(-c5cnn(C)c5)c(C(F)F)cc43)nn2C[C@H]2CC[C@@H](C(=O)N3Cc4cc5c(cc4C3)C(=O)N(C3CCC(=O)NC3=O)C5=O)CC2)C1 (stereo partly drawn) [CP-031, cis-6-(4-((5-acetyl-3-(7-(difluoromethyl)-6-(1-methyl-1H-pyrazol-4-yl)-3,4-dihydroquinolin-1(2H)-yl)-4,5,6,7-tetrahydro-1H-pyrazolo[4,3-c]pyridin-1-yl)methyl)cyclohexane-1-carbonyl)-2-(2,6-dioxopiperidin-3-yl)-6,7-dihydropyrrolo[3,4-f]isoindole-1,3(2H,5H)-dione]
2 | > 50 | < 100 | < 10000 | < 1000 |  |  |  | CC(=O)N1CCc2c(c(N3CCCc4cc(-c5cnn(C)c5)c(C(F)F)cc43)nn2C[C@H]2CC[C@@H](C(=O)N3CCc4cc5c(cc4C3)C(=O)N(C3CCC(=O)NC3=O)C5=O)CC2)C1 (stereo partly drawn) [CP-032, cis-6-(4-((5-acetyl-3-(7-(difluoromethyl)-6-(1-methyl-1H-pyrazol-4-yl)-3,4-dihydroquinolin-1(2H)-yl)-4,5,6,- tetrahydro-1H-pyrazolo[4,3-c]pyridin-1-yl)methyl)cyclohexane-1-carbonyl)-2-(2,6-dioxopiperidin-3-yl)-5,6,7,8-tetrahydro-1H-pyrrolo[3,4-g]isoquinoline-1,3(2H)-dione]
3 | > 90 | < 10 |  | < 100 | < 100 |  |  | CC(=O)N1CCc2c(c(N3CCCc4cc(-c5cnn(C)c5)c(C(F)F)cc43)nn2C2CCC(C(=O)N3Cc4cc5c(cc4C3)C(=O)N(C3CCC(=O)NC3=O)C5=O)CC2)C1 (stereo not drawn) [CP-033, 6-(4-(5-acetyl-3-(7-(difluoromethyl)-6-(1-methyl-1H-pyrazol-4-yl)-3,4-dihydroquinolin-1(2H)-yl)-4,5,6,7-tetrahydro-1H-pyrazolo[4,3-c]pyridin-1-yl)cyclohexane-1-carbonyl)-2-(2,6-dioxopiperidin-3-yl)-6,7-dihydropyrrolo[3,4-f]isoindole-1,3(2H,5H)-dione]
4 |  | < 10 |  |  | < 1000 | +++ (>90% = +++) | < 100 | CC(=O)N1CCc2c(c(N3CCCc4cc(-c5cnn(C)c5)c(C(F)F)cc43)nn2C2CCC(C(=O)N3Cc4cc5c(cc4C3)C(=O)N(C3CCC(=O)NC3=O)C5=O)CC2)C1 (stereo not drawn) [CP-034, 6-(4-(5-acetyl-3-(7-(difluoromethyl)-6-(1-methyl-1H-pyrazol-4-yl)-3,4-dihydroquinolin-1(2H)-yl)-4,5,6,7-tetrahydro-1H-pyrazolo[4,3-c]pyridin-1-yl)cyclohexane-1-carbonyl)-2-(2,6-dioxopiperidin-3-yl)-6,7-dihydropyrrolo[3,4-f]isoindole-1,3(2H,5H)-dione]
5 |  | < 100 |  |  | < 10000 | + (>50% =) | < 1000 | CC(=O)N1CCc2c(c(N3CCCc4cc(-c5cnn(C)c5)c(C(F)F)cc43)nn2C2CCC(C(=O)N3CCc4cc5c(cc4C3)C(=O)N(C3CCC(=O)NC3=O)C5=O)CC2)C1 (stereo not drawn) [CP-035, 6-(4-(5-acetyl-3-(7-(difluoromethyl)-6-(1-methyl-1H-pyrazol-4-yl)-3,4-dihydroquinolin-1(2H)-yl)-4,5,6,7-tetrahydro-1H-pyrazolo[4,3-c]pyridin-1-yl)cyclohexane-1-carbonyl)-2-(2,6-dioxopiperidin-3-yl)-5,6,7,8-tetrahydro-1H-pyrrolo[3,4-g]isoquinoline-1,3(2H)-dione]
6 |  | < 10 |  |  | < 1000 | +++ (>90% = +++) | < 100 | CC(=O)N1CCc2c(c(N3CCCc4cc(-c5cnn(C)c5)c(C(F)F)cc43)nn2C2CCC(C(=O)N3CCc4cc5c(cc4C3)C(=O)N(C3CCC(=O)NC3=O)C5=O)CC2)C1 (stereo not drawn) [CP-036, 6-(4-(5-acetyl-3-(7-(difluoromethyl)-6-(1-methyl-1H-pyrazol-4-yl)-3,4-dihydroquinolin-1(2H)-yl)-4,5,6,7-tetrahydro-1H-pyrazolo[4,3-c]pyridin-1-yl)cyclohexane-1-carbonyl)-2-(2,6-dioxopiperidin-3-yl)-5,6,7,8-tetrahydro-1H-pyrrolo[3,4-g]isoquinoline-1,3(2H)-dione]
7 | > 70 | < 10 | < 1000 | < 1000 |  |  |  | CCC(=O)N1CCc2c(c(N3CCCc4cc(-c5cnn(C)c5)c(C(F)F)cc43)nn2C2CCN(C(=O)CN3Cc4cc5c(cc4C3)C(=O)N(C3CCC(=O)NC3=O)C5=O)CC2)C1 (stereo not drawn) [CP-055, 6-(2-(4-(3-(7-(difluoromethyl)-6-(1-methyl-1H-pyrazol-4-yl)-3,4-dihydroquinolin-1(2H)-yl)-5-propionyl-4,5,6,7-tetrahydro-1H-pyrazolo[4,3-c]pyridin-1-yl)piperidin-1-yl)-2-oxoethyl)-2-(2,6-dioxopiperidin-3-yl)-6,7-dihydropyrrolo[3,4-f]isoindole-1,3(2H,5H)-dione]
8 | > 90 | < 10 | < 100 | < 100 |  |  |  | CC(=O)N1CCc2c(c(N3CCCc4cc(-c5cnn(CCCCCN6Cc7cc8c(cc7C6)C(=O)N(C6CCC(=O)NC6=O)C8=O)c5)c(C(F)F)cc43)nn2C2CCOCC2)C1 (stereo not drawn) [CP-067, 6-(5-(4-(1-(5-acetyl-1-(tetrahydro-2H-pyran-4-yl)-4,5,6,7-tetrahydro-1H-pyrazolo[4,3-c]pyridin-3-yl)-7-(difluoromethyl)-1,2,3,4-tetrahydroquinolin-6-yl)-1H-pyrazol-1-yl)pentyl)-2-(2,6-dioxopiperidin-3-yl)-6,7-dihydropyrrolo[3,4-f]isoindole-1,3(2H,5H)-dione]
9 | > 90 | < 10 | < 100 | < 100 |  |  |  | CC(=O)N1CCc2c(c(N3CCCc4cc(-c5cnn(CCCCN6Cc7cc8c(cc7C6)C(=O)N(C6CCC(=O)NC6=O)C8=O)c5)c(C(F)F)cc43)nn2C2CCOCC2)C1 (stereo not drawn) [CP-068, 6-(4-(4-(1-(5-acetyl-1-(tetrahydro-2H-pyran-4-yl)-4,5,6,7-tetrahydro-1H-pyrazolo[4,3-c]pyridin-3-yl)-7-(difluoromethyl)-1,2,3,4-tetrahydroquinolin-6-yl)-1H-pyrazol-1-yl)butyl)-2-(2,6-dioxopiperidin-3-yl)-6,7-dihydropyrrolo[3,4-f]isoindole-1,3(2H,5H)-dione]
10 | > 70 | < 10 | < 1000 | < 100 |  |  |  | CC(=O)N1CCc2c(c(N3CCCc4cc(-c5cnn(CCCCCN6CCc7cc8c(cc7C6)C(=O)N(C6CCC(=O)NC6=O)C8=O)c5)c(C(F)F)cc43)nn2C2CCOCC2)C1 (stereo not drawn) [CP-069, 6-(5-(4-(1-(5-acetyl-1-(tetrahydro-2H-pyran-4-yl)-4,5,6,7-tetrahydro-1H-pyrazolo[4,3-c]pyridin-3-yl)-7-(difluoromethyl)-1,2,3,4-tetrahydroquinolin-6-yl)-1H-pyrazol-1-yl)pentyl)-2-(2,6-dioxopiperidin-3-yl)-5,6,7,8-tetrahydro-1H-pyrrolo[3,4-g]isoquinoline-1,3(2H)-dione]
11 | > 70 | < 10 | < 1000 | < 100 |  |  |  | CC(=O)N1CCc2c(c(N3CCCc4cc(-c5cnn(CCCCN6CCc7cc8c(cc7C6)C(=O)N(C6CCC(=O)NC6=O)C8=O)c5)c(C(F)F)cc43)nn2C2CCOCC2)C1 (stereo not drawn) [CP-070, 6-(4-(4-(1-(5-acetyl-1-(tetrahydro-2H-pyran-4-yl)-4,5,6,7-tetrahydro-1H-pyrazolo[4,3-c]pyridin-3-yl)-7-(difluoromethyl)-1,2,3,4-tetrahydroquinolin-6-yl)-1H-pyrazol-1-yl)butyl)-2-(2,6-dioxopiperidin-3-yl)-5,6,7,8-tetrahydro-1H-pyrrolo[3,4-g]isoquinoline-1,3(2H)-dione]
12 | > 90 | < 10 | < 1000 | < 100 |  |  |  | CC(=O)N1CCc2c(c(N3CCCc4cc(-c5cnn(C6CCN(C(=O)CN7CCc8cc9c(cc8C7)C(=O)N(C7CCC(=O)NC7=O)C9=O)CC6)c5)c(C(F)F)cc43)nn2C2CCOCC2)C1 (stereo not drawn) [CP-071, 6-(2-(4-(4-(1-(5-acetyl-1-(tetrahydro-2H-pyran-4-yl)-4,5,6,7-tetrahydro-1H-pyrazolo[4,3-c]pyridin-3-yl)-7-(difluoromethyl)-1,2,3,4-tetrahydroquinolin-6-yl)-1H-pyrazol-1-yl)piperidin-1-yl)-2-oxoethyl)-2-(2,6-dioxopiperidin-3-yl)-5,6,7,8-tetrahydro-1H-pyrrolo[3,4-g]isoquinoline-1,3(2H)-dione]
